Data reported in PMC4815908 (Bioorganic & medicinal chemistry letters, 2015).

Test system: P. falciparum 3D7 (chloroquine-sensitive)
Test: in vitro growth inhibition assay, P. falciparum 3D7
Type: cell-based
Details: Plasmodium falciparum, 3D7, read-out: IC50 ± SEM 3D7

[C-]#[N+]C(C)(C)C[C@@H]1C[C@H](C)[C@H]2CC[C@H](C)[C@@]3([N+]#[C-])CCC(=C)[C@@H]1[C@H]23 [compound 1, (−)-8,15-diisocyano-11(20)-amphilectene]
IC50: 1.2 nM
